Reference: patent publication US20170157135A1 (Novogen Limited, priority 2013, published 2017)

Tests used:
Format in all cases: cell-based
[1] = system: SHEP neuroblastoma (SH-EP) cells; experiment: Cell viability assay (MTT), SHEP; conditions: 48 hr treatment
Description: (§1) Cell viability assays were also conducted to assess the anti-proliferative effects of the anti-tropomyosin compounds. Briefly, cells (1×10^3/well) were plated (96-well) and treated (48 hr) with anti-tropomyosin drug and viability measured using 3-(4,5-dimethylthiazol-2-yl)-2,5-diphenylterazolium bromide MTT. Cell viability was normalized to control (vehicle alone) and dose-response curves, and half maximal effective concentration (EC50) values were determined using Graph Pad Prism 5 (nonlinear regression sigmoidal dose-response variable slope).

[2] = system: SKMEL28 melanoma (SK-MeI-28) cells; experiment: Cell viability assay (MTT), SKMEL28; conditions: Homo sapiens, SK-MEL-28, 48 hr treatment
Description: as §1

[3] = system: SK-N-SH neuroblastoma cells; experiment: Anti-proliferative assay (cell-titre luminescent), SK-N-SH; conditions: Homo sapiens, 72 hours, luminescence
Description: (§2) The ability of compounds 2002, 2009 and 2013-2064 to inhibit the proliferation of cancer cells representative of neuroblastoma, melanoma, prostate cancer, colorectal cancer, non-small cell lung carcinoma, and triple negative breast cancer was assessed. These studies were conducted by contract research (GVK-BIO). Briefly, a pre-determined number of cells as calculated from cell growth assays for each of the cell lines employed were seeded into their respective culture medium (using ATCC culture parameters—http://www.atcc.org) and cultured for 24 h at 37° C. and 5% CO2 in 96-well culture plates. Once attached, each cell line was then exposed to various concentrations of each respective analogue (30, 10, 3, 1, 0.3 and 0.1 μM), cultured for a further 72 hours and exposed to cell-titre luminescent reagent (100 μL/well) for a further 30 minutes). Luminescence was captured using an EnVision multilabel reader and the data for each analogue concentration compared against no treatment control. Cell viability was normalized to control (vehicle alone) and dose-response curves, and half maximal effective concentration (EC50) values were determined using Graph Pad Prism 6 (nonlinear regression sigmoidal dose-response variable slope).

[4] = system: SK-Mel-28 melanoma cells; experiment: Anti-proliferative assay (cell-titre luminescent), SK-Mel-28; conditions: Homo sapiens; SK-Mel-28, 72 hours, luminescence
Description: as §2

[5] = system: PC3 prostate cancer cells; experiment: Anti-proliferative assay (cell-titre luminescent), PC3; conditions: PC3, 72 hours, luminescence
Description: as §2

[6] = system: DU145 prostate cancer cells; experiment: Anti-proliferative assay (cell-titre luminescent), DU145; conditions: Homo sapiens, DU-145; DU145, 72 hours, luminescence
Description: as §2

[7] = system: CaCo2 colorectal cancer cells; experiment: Anti-proliferative assay (cell-titre luminescent), CaCo2; conditions: Homo sapiens, Caco-2; CaCo2, 72 hours, luminescence
Description: as §2

[8] = system: A549 lung (NSLC) cells; experiment: Anti-proliferative assay (cell-titre luminescent), A549; conditions: Homo sapiens; A549, 72 hours, luminescence
Description: as §2

[9] = system: MDA-MB-231 breast cancer cells; experiment: Anti-proliferative assay (cell-titre luminescent), MDA-MB-231; conditions: Homo sapiens; MDA-MB-231, 72 hours, luminescence
Description: as §2

Row | SMILES | IC50 [1] | IC50 [2] | IC50 [3] | IC50 [4] | IC50 [5] | IC50 [6] | IC50 [7] | IC50 [8] | IC50 [9]
1 | Cc1c(/C=C/C(=O)NCCc2ccccc2)c2ccccc2n1CCCN(C)C [Compound 2011, (E)-3-(1-(3-(dimethylamino)propyl)-2-methyl-1H-indol-3-yl)-N-phenethylacrylamide] | 13.2 µM | 12.1 µM |  |  |  |  |  |  | 
2 | Cc1c(/C=C/C(=O)N2CCN(C(=O)c3ccccc3)CC2)c2ccccc2n1CCCN(C)C [Compound 2004, (E)-1-(4-benzoylpiperazin-1-yl)-3-(1-(3-(dimethylamino)propyl)-2-methyl-1H-indol-3-yl)prop-2-en-1-one] | 198 µM | 32.7 µM |  |  |  |  |  |  | 
3 | Cc1nc(-c2cn(CCCN(C)C)c3ccccc23)cc(N2CCN(CCc3ccccc3)CC2)n1 [Compound 2012, N,N-dimethyl-3-(3-(2-methyl-6-(4-phenethylpiperazin-1-yl)pyrimidin-4-yl)-1H-indol-1-yl)propan-1-amine] | 21.7 µM | 3.2 µM |  |  |  |  |  |  | 
4 | COc1ccc(CN2CCN(C(=O)/C=C/c3c(C)n(CCCN(C)C)c4ccccc34)CC2)cc1 [Compound 2010, (E)-3-(1-(3-(dimethylamino)propyl)-2-methyl-1H-indol-3-yl)-1-(4-(4-methoxybenzyl)piperazin-1-yl)prop-2-en-1-one] | 3.2 µM | 2.75 µM |  |  |  |  |  |  | 
5 | Cc1c(/C=C/C(=O)N2CCN(CCc3ccccc3)CC2)c2ccccc2n1CCCN1CCOCC1 [Compound 2007, (E)-3-(2-methyl-1-(3-morpholinopropyl)-1H-indol-3-yl)-1-(4-phenethylpiperazin-1-yl)prop-2-en-1-one] | 24 µM | 33.1 µM |  |  |  |  |  |  | 
6 | COc1ccc2c(c1)c(/C=C/C(=O)N1CCN(CCc3ccc4c(c3)OCO4)CC1)c(C)n2CCCN(C)C [Compound 2020, (E)-1-(4-(2-(benzo[d][1,3]dioxol-5-yl)ethyl)piperazin-1-yl)-3-(1-(3-(dimethylamino)propyl)-5-methoxy-2-methyl-1H-indol-3-yl)prop-2-en-1-one] |  |  | 3.9 µM | 3.5 µM | 5.1 µM | 5.7 µM | 4.5 µM | 3.5 µM | 5.1 µM
7 | Cc1c(C(=O)N2CCN(CCc3ccccc3)CC2)c2ccccc2n1CCCN(C)C [Compound 2043, (1-(3-(dimethylamino)propyl)-2-methyl-1H-indol-3-yl)(4-phenethylpiperazin-1-yl)methanone] |  |  | 17.4 µM | 17.2 µM | > 30 µM | > 30 µM | > 30 µM | > 30 µM | > 30 µM
8 | COc1cccc(CCN2CCN(C(=O)/C=C/c3c(C)n(CCCN4CCN(C)CC4)c4ccc(OC)cc34)CC2)c1 [Compound 2033, (E)-3-(5-methoxy-2-methyl-1-(3-(4-methylpiperazin-1-yl)propyl)-1H-indol-3-yl)-1-(4-(3-methoxyphenethyl)piperazin-1-yl)prop-2-en-1-one] |  |  | 3.3 µM | 4.2 µM | 6.8 µM | 18.6 µM | 4.2 µM | 10.8 µM | 4.5 µM
9 | COc1ccc2c(c1)c(C(=O)N1CCN(CCc3ccccc3)CC1)c(C)n2CCCN(C)C [Compound 2049, (1-(3-(dimethylamino)propyl)-5-methoxy-2-methyl-1H-indol-3-yl)(4-phenethylpiperazin-1-yl)methanone] |  |  | 8.9 µM | 8.7 µM | 8.6 µM | > 30 µM | > 30 µM | > 30 µM | 7.5 µM
10 | COc1ccc2c(c1)c(C(=O)N1CCN(CCc3ccc(F)cc3)CC1)c(C)n2CCCN1CCN(C)CC1 [Compound 2056, (4-(4-fluorophenethyl)piperazin-1-yl)(5-methoxy-2-methyl-1-(3-(4-methylpiperazin-1-yl)propyl)-1H-indol-3-yl)methanone] |  |  | 11.2 µM | 4.8 µM | 10.8 µM | 18.9 µM | 10.1 µM | 14.7 µM | 13.9 µM
11 | COc1ccc2c(c1)c(C(=O)N1CCN(CCc3ccc4c(c3)OCO4)CC1)c(C)n2CCCN1CCN(C)CC1 [Compound 2058, (4-(2-(benzo[d][1,3]dioxol-5-yl)ethyl)piperazin-1-yl)(5-methoxy-2-methyl-1-(3-(4-methylpiperazin-1-yl)propyl)-1H-indol-3-yl)methanone] |  |  | 8 µM | 4.8 µM | 12 µM | 21.1 µM | 10.8 µM | 13.9 µM | 29.8 µM
12 | CCN(CC)CCCn1c(C)c(C(=O)N2CCN(CCc3ccc(F)cc3)CC2)c2cc(OC)ccc21 [Compound 2050, (1-(3-(diethylamino)propyl)-5-methoxy-2-methyl-1H-indol-3-yl)(4-(4-fluorophenethyl)piperazin-1-yl)methanone] |  |  | 21.4 µM | 5.3 µM | 26.4 µM | 15.9 µM | 10.4 µM | 19.8 µM | 14 µM
13 | COc1cccc(CCN2CCN(C(=O)c3c(C)n(CCCN4CCN(C)CC4)c4ccc(OC)cc34)CC2)c1 [Compound 2060, (5-methoxy-2-methyl-1-(3-(4-methylpiperazin-1-yl)propyl)-1H-indol-3-yl)(4-(3-methoxyphenethyl)piperazin-1-yl)methanone] |  |  | 10.8 µM | 7.5 µM | > 30 µM | > 30 µM | > 30 µM | > 30 µM | 6.1 µM
14 | COc1ccc(CCN2CCN(C(=O)c3c(C)n(CCCN(C)C)c4ccc(OC)cc34)CC2)cc1 [Compound 2045, (1-(3-(dimethylamino)propyl)-5-methoxy-2-methyl-1H-indol-3-yl)(4-(4-methoxyphenethyl)piperazin-1-yl)methanone] |  |  | > 30 µM | > 30 µM | > 30 µM | > 30 µM | > 30 µM | > 30 µM | > 30 µM
15 | Cc1c(/C=C/C(=O)N2CCN(CCc3ccccc3)CC2)c2ccccc2n1CCCN(C)C [Compound 2017, (E)-3-(1-(3-(dimethylamino)propyl)-2-methyl-1H-indol-3-yl)-1-(4-phenethylpiperazin-1-yl)prop-2-en-1-one] |  |  | 17.6 µM | 8.7 µM | 11.5 µM | 15.7 µM | 12.6 µM | 13.6 µM | 18.5 µM
16 | COc1ccc2c(c1)c(/C=C/C(=O)N1CCN(CCc3ccc4c(c3)OCO4)CC1)c(C)n2CCCN1CCN(C)CC1 [Compound 2031, (E)-1-(4-(2-(benzo[d][1,3]dioxol-5-yl)ethyl)piperazin-1-yl)-3-(5-methoxy-2-methyl-1-(3-(4-methylpiperazin-1-yl)propyl)-1H-indol-3-yl)prop-2-en-1-one] |  |  | 3.7 µM | 3.9 µM | 2.1 µM | 6.2 µM | 3.7 µM | 4.2 µM | 5.2 µM
17 | COc1ccc2c(c1)c(/C=C/C(=O)N1CCN(CCc3cccc(F)c3)CC1)c(C)n2CCCN1CCN(C)CC1 [Compound 2032, (E)-1-(4-(3-fluorophenethyl)piperazin-1-yl)-3-(5-methoxy-2-methyl-1-(3-(4-methylpiperazin-1-yl)propyl)-1H-indol-3-yl)prop-2-en-1-one] |  |  | 4.7 µM | 4.3 µM | 6.8 µM | 7.7 µM | 5.6 µM | 9 µM | 4.9 µM
18 | CCN(CC)CCCn1c(C)c(/C=C/C(=O)N2CCN(CCc3ccc4c(c3)OCO4)CC2)c2cc(OC)ccc21 [Compound 2025, (E)-1-(4-(2-(benzo[d][1,3]dioxol-5-yl)ethyl)piperazin-1-yl)-3-(1-(3-(diethylamino)propyl)-5-methoxy-2-methyl-1H-indol-3-yl)prop-2-en-1-one] |  |  | 4.1 µM | 4.1 µM | 7.6 µM | 15.6 µM | 16.5 µM | 4.7 µM | 30 µM
19 | Cc1c(C(=O)N2CCN(CCc3ccc(F)cc3)CC2)c2ccccc2n1CCCN(C)C [Compound 2038, (1-(3-(dimethylamino)propyl)-2-methyl-1H-indol-3-yl)(4-(4-fluorophenethyl)piperazin-1-yl)methanone] |  |  | > 30 µM | > 30 µM | > 30 µM | > 30 µM | > 30 µM | > 30 µM | > 30 µM
